Measured values reported in patent US5326774A, “Pharmaceutical preparation of antihypertensive, antianginal, antiarrhythmic and antiglaucomic action” (priority 1992, dated 1994).

Columns and labels:
[1] = test system: heart rate; assay: Heart rate in anesthetized rats, i.v.; type: in vivo, rat; settings: for heart rate: control 271±7
Experimental: (§1) β-adrenoceptor blocking activity of the active principle of the pharmaceutical preparation of the invention was studied. […]. The test substances were injected to several groups of animals (6-10 individuals each) in the graded doses of 0.001, 0.0025, 0.01, 0.025, and 0.1 mg/kg.
(§2) From the dosage of […] it gave rise to the lowering of arterial pressure (from 159±9 in the control to 141±11, 127±10 and 123 ±11 mm Hg in the dosages of 0.01, 0.025 and 0.1 mg/kg). From the dosage of 0.0025 mg/kg the compound of the invention gave rise to the dose-related suppression of the isadrin-initiated depressor effect (by 12,63, 82 and 90% in doses of 0.0025, 0.01, 0.025 and 0.1 mg/kg) and, starting from the dosage of […], a positive chronotropic (by 25, 46 and 78% in doses of 0.01, 0.025 said 0.1 mg/kg, respectively) effect.

[2] = test system: β-adrenoceptor; assay: β-adrenoceptor blocking effect duration; settings: in vivo
[3] = test system: arterial pressure; assay: Antihypertensive effect in rats with renovascular hypertension; type: in vivo, rat
Experimental: . In rats suffering from renovascular hypertension the compound of the invention in the dosage of 10 mg/kg (injected intramuscularly) lowered with confidence the arterial pressure (from 137±3 to 117±5 mm of Hg column) 30 minutes after being administered. The 2-week course of the administration of the compound according to the invention (10 mg/kg 1 time a day) caused the antihypertensive effect to be enhanced. By the end of the second week the arterial pressure was 110±8.6 mm Hg. […]

[4] = test system: arterial pressure; assay: Arterial pressure in anesthetized rats, i.v.; type: in vivo, rat; settings: for arterial pressure: control 159±9
Experimental: as §1, §2

[5] = test system: arterial pressure; assay: Hypotensive activity in anesthetized cats, i.v.; type: in vivo, cat; settings: for arterial pressure: control 163±8
[6] = test system: mesaton-initiated pressor effect; assay: Mesaton-initiated pressor effect in anesthetized rats; type: in vivo, rat

`Cc1noc(COc2ccccc2OCC(O)CNC(C)(C)C)n1.Cl` (stereo not drawn) [Compound of the invention, 3-methyl-5-[2-(3-tert.butylamino-2-hydroxypropoxy)phenoxymethyl]-1,2,4-oxadiazole hydrochloride] was tested, and the heart rate ([1]; 0.0025 mg/kg i.v.) was 249±11 beat/min, the heart rate ([1]; 0.01 mg/kg i.v.) was 238±16 beat/min and the heart rate ([1]; 0.025 mg/kg i.v.) was 204±14 beat/min. For the same compound, the heart rate ([1]; 0.1 mg/kg i.v.) was 181±14 beat/min, the minimal effective dose ([1]; Rattus norvegicus, iv, read-out: dosage from which heart rate decreased) was 2.5 µg/kg and the “β-adrenoceptor blocking effect duration” value [2] was “somewhat superior to propranolol and oxprenolol”. For the same compound, the arterial pressure ([3]; 10 mg/kg 1 time a day, end of second week) was 110±8.6 mm Hg, the arterial pressure ([3]; 10 mg/kg i.m., 30 minutes, from 137±3) was 117±5 mm of Hg column and the “efficacy on long-time use” value ([3]; long time use) was “its efficacy is not becoming low (no drug addiction)”. The arterial pressure ([4]; 0.01 mg/kg i.v.) was 141±11 mm Hg, the arterial pressure ([4]; 0.025 mg/kg i.v.) was 127±10 mm Hg and the arterial pressure ([4]; 0.1 mg/kg i.v.) was 123 ±11 mm Hg. It also gave a minimal effective dose ([4]; Rattus norvegicus, iv, read-out: dosage from which arterial pressure lowered) of 0.1 mg/kg, an arterial pressure ([5]; 0.02 mg/kg) of 147±12 mm Hg and an arterial pressure ([5]; 0.1 mg/kg) of 132±5 mm Hg. For the same compound, the arterial pressure ([5]; 0.3 mg/kg) was 96±7 mm Hg, the arterial pressure ([5]; 1.0 mg/kg) was 90±7 mm Hg and the arterial pressure ([5]; 5.0 mg/kg) was 67±7 mm Hg. The ED20 ([5]; Felis catus, iv, anesthetized cats, read-out: Dose resulting in lowering of arterial pressure by 20%, ED20) was 0.11 ± 0.01 mg/kg, the minimal effective dose ([5]; Felis catus, iv, cats, read-out: dosage from which arterial pressure lowered) was 0.02 mg/kg and the “hypotensive effect compared with labetalol” value ([5]; anesthetized normotensive cats, i.v.) was “stronger hypotensive effect as compared with labetalol”. The “hypotensive activity, times as high as labetalol” value ([5]; comparison of ED20) was 9 times, the “hypotensive activity and duration compared with labetalol” value ([5]; in vivo) was “superior to labetalol by hypotensive activity and duration of such effect” and the “duration of hypotensive effect” value ([5]; large dosages) was 3 to 4 h. For the same compound, the “duration of hypotensive effect” value ([5]; small dosages) was 0.083 to 0.5 h, the “effect on mesaton pressor effect” value ([6]; 3 mg/kg i.v.) was “did not change” and the “suppression of mesaton pressor effect” value ([6]; 10 mg/kg i.v., average) was 76%.
